Results on 19 molecules are retold here after patent publication US10875851B2, “Factor XIIa inhibitors” (Merck Sharp & Dohme Corp., priority 2016, dated 2020).

human Factor XIIa, sequence (P00748 373-615): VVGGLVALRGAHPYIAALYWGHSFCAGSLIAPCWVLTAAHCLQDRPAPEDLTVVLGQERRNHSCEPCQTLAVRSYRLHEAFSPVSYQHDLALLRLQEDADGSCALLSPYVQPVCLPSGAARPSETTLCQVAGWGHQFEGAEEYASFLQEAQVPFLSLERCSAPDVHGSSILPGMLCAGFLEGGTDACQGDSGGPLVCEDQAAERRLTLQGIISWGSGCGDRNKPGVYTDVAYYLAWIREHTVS

The assay addresses human Factor XIIa (Homo sapiens (Human), UniProt P00748). Put plainly: Factor XIIa Assay. The format is biochemical. The settings on record: purified human Factor XIIa 500 pM; substrate n-Acetyl-Lys-Pro-Arg-AFC 100 μM; pH 7.4; read-out: FXIIa IC50. An outline of the steps:
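Purified human FXIIa at 500 pM final with 100 μM n-Acetyl-Lys-Pro-Arg-AFC in 50 mM HEPES, 150 mM NaCl, 5 mM CaCl2, 0.1% PEG 8000, pH 7.4, at room temperature or 37° C. Initial fluorogenic hydrolysis rates measured after enzyme–inhibitor equilibration; IC50 taken where Vi=Vo/2.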
Consider `COc1cc(CNC(=O)[C@@H]2CN(C3=N[C@@H](C)[C@H](c4ccccc4)O3)CCN2C(=O)[C@@H](CCCCN2CCCCC2)NC2CCC(CN)CC2)ccc1C(N)=O` (stereo partly drawn) [Example 165, (2S)-1-{N-[4-(aminomethyl)cyclohexyl]-6-piperidin-1-yl-D-norleucyl}-N-(4-carbamoyl-3-methoxybenzyl)-4-[(4S,5S)-4-methyl-5-phenyl-4,5-dihydro-1,3-oxazol-2-yl]piperazine-2-carboxamide], for which the IC50 is 41.1 nM.
As for `CC(C)NCCCC[C@@H](NC(C)C)C(=O)N1CCN(C2=N[C@@H](C)[C@H](c3ccccc3)O2)C[C@H]1C(=O)NCc1cccc(Cl)c1` [Example 166, (2S)-1-[N^2,N^6-bis(1-methylethyl)-D-lysyl]-N-(3-chlorobenzyl)-4-[(4S,5S)-4-methyl-5-phenyl-4,5-dihydro-1,3-oxazol-2-yl]piperazine-2-carboxamide], the figure is 6.8 nM; as for `C[C@@H]1N=C(N2CCN(C(=O)[C@H](N)CCCCN3CCCCC3)[C@H](C(=O)NCc3cccc(Cl)c3)C2)O[C@H]1c1cccc(Br)c1` [Example 167, (2S)-4-[(4S,5S)-5-(3-bromophenyl)-4-methyl-4,5-dihydro-1,3-oxazol-2-yl]-N-(3-chlorobenzyl)-1-(6-piperidin-1-yl-D-norleucyl)piperazine-2-carboxamide], 36.1 nM.
Turning to `CC(C)N[C@H](CCCCN1CCCCC1)C(=O)N1CCN(C2=N[C@@H](C)[C@H](c3cccc(Br)c3)O2)C[C@H]1C(=O)NCc1cccc(Cl)c1` [Example 168, (2S)-4-[(4S,5S)-5-(3-bromophenyl)-4-methyl-4,5-dihydro-1,3-oxazol-2-yl]-N-(3-chlorobenzyl)-1-[N-(1-methylethyl)-6-piperidin-1-yl-D-norleucyl]piperazine-2-carboxamide], the IC50 was 8.2 nM.
On to `CC(C)N[C@H](CCCCN1CCCCC1)C(=O)N1CCN(C2=NC(C)[C@H](c3cccc(C#N)c3)O2)C[C@H]1C(=O)NCc1cccs1` (stereo partly drawn) [Example 169, (2S)-4[5-(3-cyanophenyl)-4-methyl-4,5-dihydro-1,3-oxazol-2-yl]-1-[N-(1-methylethyl)-6-piperidin-1-yl-D-norleucyl]-N-(thiophen-2-ylmethyl)piperazine-2-carboxamide], for which the 50% inhibitory concentration (IC50) amounted to 12.5 nM.
As for `CC[C@@H](C)N[C@H](CCCCN1CCCCC1)C(=O)N1CCN(C2=N[C@@H](C)[C@H](c3ccccc3)O2)C[C@H]1C(=O)NCc1cccc(Cl)c1` [Example 170, (2S)-N-(3-chlorobenzyl)-4-[(4S,5S)-4-methyl-5-phenyl-4,5-dihydro-1,3-oxazol-2-yl]-1-{N-[(1R)-1-methylpropyl]-6-piperidin-1-yl-D-norleucyl}piperazine-2-carboxamide], the IC50 stood at 2.5 nM.
On to `CC(C)N[C@H](CCCCN1CCCCC1)C(=O)N1CCN(C2=N[C@@H](C)[C@H](c3ccccc3)O2)C[C@H]1C(=O)NCc1ccc2[nH]cc(Cl)c2c1` [Example 171, (2S)-N-[(3-chloro-1H-indol-5-yl)methyl]-1-[N-(1-methylethyl)-6-piperidin-1-yl-D-norleucyl]-4-[(4S,5S)-4-methyl-5-phenyl-4,5-dihydro-1,3-oxazol-2-yl]piperazine-2-carboxamide], for which the IC50 was determined as 0.5 nM.
The same measure for `C[C@@H]1N=C(N2CCN(C(=O)[C@@H](CCCCN3CCCCC3)NC3CCC(CN)CC3)[C@H](C(=O)NCc3ccc4[nH]cc(Cl)c4c3)C2)O[C@H]1c1ccccc1` (stereo partly drawn) [Example 172, (2S)-1-{N-[4-(aminomethyl)cyclohexyl]-6-piperidin-1-yl-D-norleucyl}-N-[(3-chloro-1H-indol-5-yl)methyl]-4-[(4S,5S)-4-methyl-5-phenyl-4,5-dihydro-1,3-oxazol-2-yl]piperazine-2-carboxamide]: 0.6 nM; for `CC(C)N[C@H](CCCCN1CCCCC1)C(=O)N1CCN(C2=N[C@@H](C)[C@H](c3ccccc3)O2)C[C@H]1C(=O)NCc1cc2cnccc2s1` [Example 173, (2S)-1-[N-(1-methylethyl)-6-piperidin-1-yl-D-norleucyl]-4-[(4S,5S)-4-methyl-5-phenyl-4,5-dihydro-1,3-oxazol-2-yl]-N-(thieno[3,2-c]pyridin-2-ylmethyl)piperazine-2-carboxamide]: 3.9 nM; for `C[C@@H]1N=C(N2CCN(C(=O)[C@@H](CCCCN3CCCCC3)NC3CCC(CN)CC3)[C@H](C(=O)NCc3cc4cnccc4s3)C2)O[C@H]1c1ccccc1` (stereo partly drawn) [Example 174, (2S)-1-{N-[4-(aminomethyl)cyclohexyl]-6-piperidin-1-yl-D-norleucyl}-4-[(4S,5S)-4-methyl-5-phenyl-4,5-dihydro-1,3-oxazol-2-yl]-N-(thieno[3,2-c]pyridin-2-ylmethyl)piperazine-2-carboxamide]: 3 nM.
The same measure for `CC(C)N[C@H](CCCCN1CCCCC1)C(=O)N1CCN(C2=N[C@@H](C)[C@H](c3ccccc3)O2)C[C@H]1C(=O)NCc1cccc(Cl)c1` [Example 175, (2S)-N-(3-chlorobenzyl)-1-[N-(1-methylethyl)-6-piperidin-1-yl-D-norleucyl]-4-[(4S,5S)-4-methyl-5-phenyl-4,5-dihydro-1,3-oxazol-2-yl]piperazine-2-carboxamide]: 6.6 nM.
Turning to `C[C@@H]1N=C(N2CCN(C(=O)[C@@H](CCCCN3CCCCC3)NC3CCC(CN)CC3)[C@H](C(=O)NCc3cccc(Cl)c3)C2)O[C@H]1c1ccccc1` (stereo partly drawn) [Example 176, (2S)-1-{N-[4-(aminomethyl)cyclohexyl]-6-piperidin-1-yl-D-norleucyl}-N-(3-chlorobenzyl)-4-[(4S,5S)-4-methyl-5-phenyl-4,5-dihydro-1,3-oxazol-2-yl]piperazine-2-carboxamide], the IC50 was found to be 29 nM.
As for `C[C@@H]1N=C(N2CCN(C(=O)[C@@H](CCCCN3CCCCC3)NC3CCC(CN)CC3)[C@H](C(=O)NCc3ccc(C(N)=O)s3)C2)O[C@H]1c1ccccc1` (stereo partly drawn) [Example 177, (2S)-1-{N-[4-(aminomethyl)cyclohexyl]-6-piperidin-1-yl-D-norleucyl}-N-[(5-carbamoylthiophen-2-yl)methyl]-4-[(4S,5S)-4-methyl-5-phenyl-4,5-dihydro-1,3-oxazol-2-yl]piperazine-2-carboxamide], the figure is 27.9 nM; as for `CC(C)N[C@H](CCCCN1CCCCC1)C(=O)N1CCN(C2=N[C@@H](C)[C@H](c3ccccc3)O2)C[C@H]1C(=O)NCc1cc(CN)cs1` [Example 178, (2S)-N-{[4-(aminomethyl)thiophen-2-yl]methyl}-1-[N-(1-methylethyl)-6-piperidin-1-yl-D-norleucyl]-4-[(4S,5S)-4-methyl-5-phenyl-4,5-dihydro-1,3-oxazol-2-yl]piperazine-2-carboxamide], 4.6 nM.
As for `CC(C)N[C@H](CCCCN1CCCCC1)C(=O)N1CCN(C2=N[C@@H](C)[C@H](c3ccccc3)O2)C[C@H]1C(=O)NCc1ccc(CN)c(Cl)c1` [Example 179, (2S)-N-[4-(aminomethyl)-3-chlorobenzyl]-1-[N-(1-methylethyl)-6-piperidin-1-yl-D-norleucyl]-4-[(4S,5S)-4-methyl-5-phenyl-4,5-dihydro-1,3-oxazol-2-yl]piperazine-2-carboxamide], the IC50 was found to be 1.7 nM.
On to `CC(C)N[C@H](CCCCN1CCCCC1)C(=O)N1CCN(C2=N[C@@H](C)[C@H](c3ccccc3)O2)C[C@H]1C(=O)NCc1ccc(CN)cc1` [Example 180, (2S)-N-[4-(aminomethyl)benzyl]-1-[N-(1-methylethyl)-6-piperidin-1-yl-D-norleucyl]-4-[(4S,5S)-4-methyl-5-phenyl-4,5-dihydro-1,3-oxazol-2-yl]piperazine-2-carboxamide], for which the IC50 worked out at 47.1 nM.
As to `CC(C)N[C@H](CCCCN1CCCCC1)C(=O)N1CCN(C2=N[C@@H](C)[C@H](c3ccccc3)O2)C[C@H]1C(=O)NCc1cc(F)c(CN)c(F)c1` [Example 181, (2S)-N-[4-(aminomethyl)-3,5-difluorobenzyl]-1-[N-(1-methylethyl)-6-piperidin-1-yl-D-norleucyl]-4-[(4S,5S)-4-methyl-5-phenyl-4,5-dihydro-1,3-oxazol-2-yl]piperazine-2-carboxamide], the half-inhibitory concentration (IC50) worked out at 44.4 nM.
Take `C[C@@H]1N=C(N2CCN(C(=O)[C@@H](CC3CCN(C4CCC(C(N)=O)CC4)CC3)NC3CCC(C(N)=O)CC3)[C@H](C(=O)NCc3cccs3)C2)O[C@H]1c1ccccc1` (stereo partly drawn) [Example 182, (2S)-1-{N-(4-carbamoylcyclohexyl)-3-[1-(4-carbamoylcyclohexyl)piperidin-4-yl]-D-alanyl}-4-[(4S,5S)-4-methyl-5-phenyl-4,5-dihydro-1,3-oxazol-2-yl]-N-(thiophen-2-ylmethyl)piperazine-2-carboxamide]: the IC50 turned out to be 34.2 nM.
In the case of `C[C@@H]1N=C(N2CCN(C(=O)[C@@H](CC3CCN(C4CCCCC4)CC3)NC3CCCCC3)[C@H](C(=O)NCc3cccs3)C2)O[C@H]1c1ccccc1` [Example 183, (2S)-[N-cyclohexyl-3-(1-cyclohexylpiperidin-4-yl)-D-alanyl]-4-[(4S,5S)-4-methyl-5-phenyl-4,5-dihydro-1,3-oxazol-2-yl]-N-(thiophen-2-ylmethyl)piperazine-2-carboxamide], the IC50 amounted to 2.4 nM.

Broadly, the IC50 is the midpoint of a concentration-inhibition curve.
